Test results published in PubChem BioAssay (NCI).
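A five-concentration, 48-hour dose response in 96-well plates underlies each endpoint, interpolated linearly between surrounding concentrations. GI50 marks 50% less growth. TGI is the concentration that stops growth completely.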

Assays:
Test in all cases: NCI tumour cell line growth inhibition, 48 h
[1] = system: A549 NSCLC
[2] = system: ACHN renal
[3] = system: BT-549 breast
[4] = system: HCT-15 colon
[5] = system: HS 578T breast
[6] = system: IGROV1 ovarian
[7] = system: MCF7 breast
[8] = system: NCI-H23 lung
[9] = system: SNB-75 CNS
[10] = system: T-47D breast

Row | SMILES | TGI [1] [µM] | TGI [2] [µM] | TGI [3] [µM] | TGI [4] [µM] | TGI [5] [µM] | TGI [6] [µM] | TGI [7] [µM] | TGI [8] [µM] | TGI [9] [µM] | TGI [10] [µM] | GI50 [1] [µM] | GI50 [2] [µM] | GI50 [3] [µM] | GI50 [4] [µM] | GI50 [5] [µM] | GI50 [6] [µM] | GI50 [7] [µM] | GI50 [8] [µM] | GI50 [9] [µM] | GI50 [10] [µM]
1 | C=C(C)C(=O)OC1CC2(C)OC2CC(OC(C)=O)/C(C)=C/C2OC(=O)C(=C)C21 (configuration not stated) | 42.5 | 3.34 | 5.41 | 1.86 | 30.6 | 18.6 | 12.2 | 19.4 | 42.3 | 14.4 | – | – | – | – | – | – | – | – | – | –
2 | O=S1(=O)N(Cc2ccccc2)[C@@H](Cc2ccccc2)C2O[C@H]2[C@H](Cc2ccccc2)N1Cc1ccccc1 (some centres not stated) | > 7.5 | > 7.5 | > 7.5 | > 7.5 | > 7.5 | > 7.5 | > 7.5 | > 7.5 | > 7.5 | > 7.5 | 3.78 | 5.88 | 4.09 | 3.92 | > 7.5 | 5.06 | 4.27 | 3.47 | > 7.5 | 6.81
3 | CCCCCCCCCCCCCCCC(=O)OCC1OC(n2cnc3c(=S)nc(N)[nH]c32)C(OC(=O)CCCCCCCCCCCCCCC)C1OC(=O)CCCCCCCCCCCCCCC (configuration not stated) | > 50 | > 50 | > 50 | > 50 | > 50 | > 50 | > 26.1 | > 50 | > 50 | > 50 | > 37.2 | 11.8 | > 50 | 6.17 | 13 | 22.7 | 1.65 | 12.9 | 4.38 | 2
4 | COC(=O)Nc1nc2ccc(Oc3ccc(NC(=O)Nc4cccc(Br)c4)cc3)cc2[nH]1 | > 13.4 | > 25 | > 25 | > 25 | > 19.8 | 11.8 | 3.77 | > 17.1 | 6.13 | > 16.7 | 4.24 | 5.53 | 11.3 | 2.3 | 3.16 | 3.69 | 0.22 | 3.23 | 0.781 | 2.17
5 | CC/C=C\C/C=C\C[C@H](O)C/C=C1/C(=O)C=C[C@H]1C/C=C\CCC(=O)OC | > 8.25 | > 8.25 | > 8.25 | 6.47 | > 8.25 | > 8.25 | > 8.25 | 6.67 | > 8.25 | > 8.25 | > 8.25 | 3.06 | 2.78 | 1.85 | 7.66 | > 8.25 | 2.43 | 2.06 | > 8.25 | 2.93
6 | O=Nc1c(-c2cccc([N+](=O)[O-])c2)nc2cnccn12 | 83.8 | 14.2 | > 100 | 30.7 | > 100 | 38.6 | > 100 | 36.1 | > 100 | 49.6 | – | – | – | – | – | – | – | – | – | –
7 | Cn1c(=O)c(Oc2cccc(F)c2)cc2cnc(NC3CCOCC3)nc21 | > 25 | > 25 | > 25 | > 25 | > 25 | > 25 | > 25 | > 25 | > 25 | > 25 | > 25 | > 25 | > 25 | > 25 | > 25 | 24.8 | > 25 | > 25 | > 6.38 | > 25
8 | CCON=C1C(C)(C)C(C)(C)C(C)(C)C1(C)C | > 100 | > 100 | > 100 | > 100 | > 100 | > 100 | > 100 | > 100 | > 100 | > 100 | – | – | – | – | – | – | – | – | – | –
9 | CCCCCCCCCCCCCC[P+](CCCCCC)(CCCCCC)CCCCCC | > 100 | 1.51 | 0.381 | > 100 | – | 25.7 | 1.3 | 1.4 | – | – | 0.292 | 0.26 | 0.0412 | 0.27 | 0.041 | 0.0705 | 0.146 | 0.083 | 0.125 | 0.0501
10 | O=CN1N=C(c2ccc(Nc3ccnc4cc(Cl)ccc34)cc2)CC1c1ccccc1 (configuration not stated) | > 100 | 84.4 | 15.6 | 14.4 | 71.1 | > 100 | 26.7 | > 100 | > 100 | 7.42 | 4.05 | 4.21 | 3.81 | 2.54 | 3.77 | 9.36 | 3.42 | 3.64 | 5.03 | 2.18
11 | COc1cc(C(=O)/C=C/c2c(-c3ccc(F)cc3)nc3sc(C)cn23)cc(OC)c1OC | > 100 | > 100 | > 100 | > 100 | > 100 | > 100 | > 100 | 8.87 | > 100 | > 100 | 9.34 | 5.83 | 3.75 | 3.75 | 8.29 | 8.71 | 1.81 | 2.24 | 50.1 | 2.93
